For this series, the system named is HeLa cells. Type of series: cell-based, human. Conditions: MTT, concluding statement.

Structures are written as SMILES.

As for `Cc1ncc(-c2cc(F)c(O)c(F)c2)cc1-c1cc(F)c(O)c(F)c1` [compound 26], the “toxicity to human cells” value was “not overtly toxic”.

These data come from PMC6746079, “Development of Pyridine-based Inhibitors for the Human Vaccinia-related Kinases 1 and 2” (ACS Medicinal Chemistry Letters, 2019).
